Laboratory results published in the supplement of paper PMC10307832.

Experiments:
Experiment in all cases: relative viability (nuclei count vs DMSO), 5 days (fraction); higher = more cells survive
Nelarabine + Luminespib = compound: COc1nc(N)nc2c1ncn2[C@@H]1O[C@H](CO)[C@@H](O)[C@@H]1O [Nelarabine] + CCNC(=O)c1noc(-c2cc(C(C)C)c(O)cc2O)c1-c1ccc(CN2CCOCC2)cc1 [Luminespib] (partner 0.01 µM)
Outline: (§1)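 Relative viability was taken as the ratio of nuclei in treated wells to nuclei in vehicle wells. Lung cancer cell lines in 1536-well plates received compounds by pin tool one day after seeding, either one drug alone or a fixed anchor-drug dose plus five library-drug doses (not always all listed) in √10 steps. Nuclei were counted on 4× images after 5 days of treatment, and values are medians of duplicate plates.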

Nelarabine + Dasatinib = compound: COc1nc(N)nc2c1ncn2[C@@H]1O[C@H](CO)[C@@H](O)[C@@H]1O [Nelarabine] + Cc1nc(Nc2ncc(C(=O)Nc3c(C)cccc3Cl)s2)cc(N2CCN(CCO)CC2)n1 [Dasatinib] (partner 0.075 µM)
Outline: as §1

Adavosertib + Decitabine = compound: C=CCn1c(=O)c2cnc(Nc3ccc(N4CCN(C)CC4)cc3)nc2n1-c1cccc(C(C)(C)O)n1 [Adavosertib] + Nc1ncn([C@H]2C[C@H](O)[C@@H](CO)O2)c(=O)n1 [Decitabine] (partner 2 µM)
Outline: as §1

Adavosertib + Bortezomib = compound: C=CCn1c(=O)c2cnc(Nc3ccc(N4CCN(C)CC4)cc3)nc2n1-c1cccc(C(C)(C)O)n1 [Adavosertib] + CC(C)C[C@H](NC(=O)[C@H](Cc1ccccc1)NC(=O)c1cnccn1)B(O)O [Bortezomib] (partner 0.002 µM)
Outline: as §1

Row | Cell Line | relative viability (Nelarabine + Luminespib; first compound 0.01 µM) | relative viability (Nelarabine + Luminespib; first compound 0.03162 µM) | relative viability (Nelarabine + Luminespib; first compound 0.1 µM) | relative viability (Nelarabine + Luminespib; first compound 0.3162 µM) | relative viability (Nelarabine + Luminespib; first compound 1 µM) | relative viability (Nelarabine + Dasatinib; first compound 0.01 µM) | relative viability (Nelarabine + Dasatinib; first compound 0.03162 µM) | relative viability (Nelarabine + Dasatinib; first compound 0.1 µM) | relative viability (Nelarabine + Dasatinib; first compound 0.3162 µM) | relative viability (Nelarabine + Dasatinib; first compound 1 µM) | relative viability (Adavosertib + Decitabine; first compound 0.01 µM) | relative viability (Adavosertib + Decitabine; first compound 0.03162 µM) | relative viability (Adavosertib + Decitabine; first compound 0.1 µM) | relative viability (Adavosertib + Decitabine; first compound 0.3162 µM) | relative viability (Adavosertib + Bortezomib; first compound 0.01 µM) | relative viability (Adavosertib + Bortezomib; first compound 0.03162 µM) | relative viability (Adavosertib + Bortezomib; first compound 0.1 µM) | relative viability (Adavosertib + Bortezomib; first compound 0.3162 µM)
1 | NCI-H2347 | 0.463 | 0.743 | 0.621 | 0.48 | 0.478 | 0.328 | 0.306 | 0.252 | 0.289 | 0.308 | 0.637 | 0.595 | 0.65 | 0.621 | 0.763 | 0.911 | 0.875 | 0.763
2 | NCI-H1793 | 0.421 | 0.156 | 0.201 | 0.251 | 0.191 | 0.458 | 0.398 | 0.416 | 0.426 | 0.409 | 0.37 | 0.477 | 0.521 | 0.358 |  |  |  | 
3 | LU99A | 0.239 | 0.235 | 0.339 | 0.282 | 0.279 | 0.522 | 0.506 | 0.36 | 0.51 | 0.797 | 0.942 | 0.912 | 0.846 | 0.69 | 1.34 | 0.998 | 1.09 | 0.827
4 | NCI-H661 | 1.04 | 1.09 | 0.928 | 0.914 | 0.911 | 1 | 0.913 | 0.953 | 0.934 | 0.853 | 0.595 | 0.577 | 0.489 | 0.4 | 0.941 | 0.695 | 0.889 | 0.738
5 | SW 900 | 0.175 | 0.175 | 0.173 | 0.179 | 0.179 | 0.555 | 0.439 | 0.524 | 0.623 | 0.639 | 0.442 | 0.464 | 0.461 | 0.312 |  |  |  | 
6 | EBC-1 |  |  |  |  |  |  |  |  |  |  |  |  |  |  | 0.719 | 0.653 | 0.562 | 0.493
7 | HCC-366 |  |  |  |  |  | 0.907 | 0.71 | 0.588 | 0.79 | 0.661 | 0.369 | 0.35 | 0.377 | 0.277 | 1.03 | 1.05 | 1.1 | 1.05
8 | NCI-H1395 | 0.666 | 0.691 | 0.773 | 0.707 | 0.987 | 0.418 | 0.39 | 0.413 | 0.408 | 0.408 | 0.702 | 0.754 | 0.781 | 0.62 |  |  |  | 
9 | NCI-H2342 | 0.775 | 0.707 | 0.657 | 0.753 | 0.765 | 0.324 | 0.302 | 0.282 | 0.346 | 0.29 | 0.72 | 0.768 | 0.755 | 0.932 |  |  |  | 
10 | NCI-H1648 |  |  |  |  |  |  |  |  |  |  | 0.491 | 0.527 | 0.448 | 0.422 |  |  |  | 
11 | LK-2 | 0.161 |  | 0.178 | 0.146 | 0.173 | 0.337 |  | 0.216 | 0.352 | 0.266 | 0.254 | 0.346 | 0.349 | 0.412 |  |  |  | 
12 | NCI-H1563 | 0.527 | 0.58 | 0.584 | 0.549 | 0.564 | 0.458 | 0.437 | 0.427 | 0.42 | 0.406 |  |  |  |  | 0.9 | 0.901 | 0.86 | 0.869
13 | NCI-H1623 | 0.467 | 0.574 | 0.588 | 0.483 | 0.621 | 0.525 | 0.563 | 0.51 | 0.559 | 0.517 |  |  |  |  |  |  |  | 
14 | A549 |  |  |  |  |  |  |  |  |  |  | 0.28 | 0.257 | 0.298 | 0.291 |  |  |  | 
15 | NCI-H522 |  | 0.993 | 1.25 | 0.96 | 1.29 | 0.863 | 0.866 | 1.07 | 0.801 | 0.993 | 0.691 | 0.692 | 0.776 | 0.745 |  |  |  | 
16 | HCC-78 |  |  |  |  |  | 0.384 | 0.358 |  | 0.459 | 0.37 | 0.661 | 0.679 | 0.731 | 0.618 | 0.542 | 0.46 | 0.529 | 0.573
17 | NCI-H2170 | 1.17 | 1.21 | 0.602 | 0.746 | 0.465 | 0.61 | 0.608 | 0.491 | 0.697 | 0.614 | 0.426 | 0.452 | 0.5 | 0.429 |  |  |  | 
18 | NCI-H1703 |  |  |  |  |  |  |  |  |  |  |  |  |  |  | 0.461 | 0.366 | 0.464 | 0.18
19 | NCI-H2228 | 0.182 | 0.156 |  | 0.161 | 0.151 | 0.725 | 0.481 |  | 0.629 | 0.559 |  |  |  |  | 0.875 | 0.941 | 0.818 | 0.358
20 | NCI-H1299 |  |  |  |  |  |  |  |  |  |  |  |  |  |  | 1.02 | 1.03 | 1.09 | 1.02
21 | SK-MES-1 | 0.954 | 0.622 | 0.748 | 0.847 | 0.797 | 0.385 | 0.263 | 0.172 | 0.324 | 0.301 | 0.368 | 0.385 | 0.364 | 0.227 |  |  |  | 
22 | NCI-H1944 | 0.925 | 0.775 | 0.793 | 0.73 | 0.745 | 0.211 | 0.213 | 0.196 | 0.185 | 0.194 | 0.415 | 0.439 | 0.448 | 0.369 |  |  |  | 
